In general, IC50 refers to the concentration at which inhibition is half-maximal. In general, inhibition refers to the relative decrease from the control value, in per cent.

Values after ≈ are worked out from the molar mass of the structure shown. Active and inactive are the calls of the source. The calls are words filed in the database; no cut-off is given here.

The values below come from ChEMBL document CHEMBL3286163, “The pterocarpanquinone LQB-118 inhibits tumor cell proliferation by downregulation of c-Myc and cyclins D1 and B1 mRNA and upregulation of p21 cell cycle inhibitor expression” (Bioorg Med Chem, 2014).

The test system of one data set is Thymocyte. The data set is described as follows: Induction of apoptosis in mouse thymocytes assessed as internucleosomal DNA fragmentation at 1 uM after 24 hrs by agarose gel electrophoresis. It is filed as functional, cell-based.
Data set [1] concerns PC-3. The data set is described as follows: Cell cycle arrest in human PC3 cells assessed as cell accumulation at S phase at 5 ug/ml after 48 hrs by propidium idoide staining based flow cytometry (reference value: 9.8%). It is filed as functional. In general terms: A flow cytometer gives signals particle by particle.
In data set [2] the test system is PC-3. The data set is described as follows: Cell cycle arrest in human PC3 cells assessed as cell accumulation at G2/M phase at 5 ug/ml after 48 hrs by propidium idoide staining based flow cytometry (reference value: 22.2%). Format: functional.
Data set [3] deals with PC-3. Put plainly: Cell cycle arrest in human PC3 cells assessed as cell accumulation at G1 phase at 1.7 ug/ml after 48 hrs by propidium idoide staining based flow cytometry (reference value: 68%). Format: functional.
The test system of data set [4] is PC-3. The data set is described as follows: Cytotoxicity against human PC3 cells assessed as inhibition of cell viability after 48 hrs by MTT assay. It is filed as functional, cell-based. The following applies: for IC50: PC-3, 48 h. For orientation: Formazan colour is commonly taken as a measure of viable cells.
Data set [5] concerns PC-3. The data set is described as follows: Decrease in cyclin D1 mRNA expression in human PC3 cells after 48 hrs by RT-PCR analysis. It is filed as functional.
In data set [6] the test system is PC-3. The data set is described as follows: Cell cycle arrest in human PC3 cells assessed as cell accumulation at G1 phase at 5 ug/ml after 48 hrs by propidium idoide staining based flow cytometry (reference value: 68%). Format: functional.
The test system of data set [7] is PC-3. The data set is described as follows: Induction of apoptosis in human PC3 cells assessed as proportion of necrotic cells at 1.7 ug/ml after 48 hrs by annexin-V-FITC/propidium iodide staining based flow cytometry (reference value: 0.8 +/- 0.9%). Format: functional.
Data set [8] relates to PC-3. Put plainly: Cell cycle arrest in human PC3 cells assessed as cell accumulation at G2/M phase at 1.7 ug/ml after 48 hrs by propidium idoide staining based flow cytometry (reference value: 22.2%). It is filed as functional.
For data set [9], the system named is PC-3. The data set is described as follows: Increase in p21 protein expression in human PC3 cells at 5 ug/ml after 48 hrs by flow cytometry. Format: functional, cell-based.
The test system of data set [10] is PC-3. The data set is described as follows: Increase in c-Myc mRNA expression in human PC3 cells after 48 hrs by RT-PCR analysis. It is filed as functional.
The subject of data set [11] is PC-3. The data set is described as follows: Induction of apoptosis in human PC3 cells assessed as proportion of late apoptotic cells at 5 ug/ml after 48 hrs by annexin-V-FITC/propidium iodide staining based flow cytometry (reference value: 6.6 +/- 1.2%). It is filed as functional.
Data set [12] relates to PC-3. The data set is described as follows: Induction of apoptosis in human PC3 cells assessed as proportion of early apoptotic cells at 1.7 ug/ml after 48 hrs by annexin-V-FITC/propidium iodide staining based flow cytometry (reference value: 6.7 +/- 2%). It is filed as functional.
A further data set relates to LNCaP. Put plainly: Cytotoxicity against human LNCAP cells assessed as inhibition of cell viability after 48 hrs by MTT assay. Format: functional, cell-based.
The subject of data set [13] is PC-3. The data set is described as follows: Cell cycle arrest in human PC3 cells assessed as cell accumulation at S phase at 1.7 ug/ml after 48 hrs by propidium idoide staining based flow cytometry (reference value: 9.8%). It is filed as functional.
A short description of data set [14]: Cytotoxicity against human RWPE1 cells assessed as inhibition of cell viability after 48 hrs by MTT assay. Format: cell-based, RWPE-1. The following applies: for IC50: Homo sapiens, RWPE-1, 48 h.
For data set [15], the system named is PC-3. The data set is described as follows: Increase in p21 mRNA expression in human PC3 cells at 5 ug/ml after 24 to 48 hrs by RT-PCR analysis. Format: functional, cell-based.
The subject of data set [16] is PC-3. Put plainly: Induction of apoptosis in human PC3 cells assessed as proportion of early apoptotic cells at 5 ug/ml after 48 hrs by annexin-V-FITC/propidium iodide staining based flow cytometry (reference value: 6.7 +/- 2%). It is filed as functional.
Data set [17] deals with PC-3. Put plainly: Induction of apoptosis in human PC3 cells assessed as internucleosomal DNA fragmentation at 5 ug/ml after 48 hrs by agarose gel electrophoresis. It is filed as functional, cell-based.
The test system of data set [18] is PC-3. The data set is described as follows: Induction of apoptosis in human PC3 cells assessed as proportion of necrotic cells at 5 ug/ml after 48 hrs by annexin-V-FITC/propidium iodide staining based flow cytometry (reference value: 0.8 +/- 0.9%). It is filed as functional.
The test system of data set [19] is PC-3. Put plainly: Decrease in cyclin B1 mRNA expression in human PC3 cells after 48 hrs by RT-PCR analysis. Format: functional.
Data set [20] has as its system PC-3. Put plainly: Induction of apoptosis in human PC3 cells assessed as proportion of late apoptotic cells at 1.7 ug/ml after 48 hrs by annexin-V-FITC/propidium iodide staining based flow cytometry (reference value: 6.6 +/- 1.2%). Format: functional.
Data set [21] has as its system PC-3. Put plainly: Antiproliferative activity against human PC3 cells assessed as inhibition of cell growth at 5 ug/ml after 72 hrs by trypan blue dye exclusion assay. Format: functional. The settings on record: PC-3, 72 h, read-out: GI.
Data set [22] concerns PC-3. Put plainly: Antiproliferative activity against human PC3 cells assessed as inhibition of cell growth at 5 ug/ml after 48 hrs by trypan blue dye exclusion assay. Format: functional. The settings on record: PC-3, 48 h, read-out: GI.
Data set [23] has as its system PC-3. Put plainly: Antiproliferative activity against human PC3 cells assessed as inhibition of cell growth at 1.7 ug/ml after 48 hrs by trypan blue dye exclusion assay. The settings on record: PC-3, 48 h, read-out: GI. It is filed as functional.
The test system of data set [24] is PC-3. The data set is described as follows: Antiproliferative activity against human PC3 cells assessed as inhibition of cell growth at 1.7 ug/ml after 72 hrs by trypan blue dye exclusion assay. The settings on record: PC-3, 72 h, read-out: GI. It is filed as functional.
Data set [25] relates to PC-3. Put plainly: Decrease in cyclin D1 mRNA expression in human PC3 cells after 24 hrs by RT-PCR analysis. Format: functional.
The subject of data set [26] is PC-3. Put plainly: Antiproliferative activity against human PC3 cells assessed as inhibition of cell growth at 5 ug/ml after 24 hrs by trypan blue dye exclusion assay. Format: functional. The settings on record: PC-3, 24 h, read-out: GI.
The subject of data set [27] is PC-3. The data set is described as follows: Cytotoxicity against human PC3 cells assessed as inhibition of cell viability at 1 ug/ml after 48 hrs by MTT assay. It is filed as functional. The following applies: PC-3, 48 h.
The subject of data set [28] is PC-3. Put plainly: Decrease in c-Myc mRNA expression in human PC3 cells after 48 hrs by RT-PCR analysis. Format: functional.
Data set [29] concerns PC-3. The data set is described as follows: Cytotoxicity against human PC3 cells assessed as inhibition of cell viability at 10 ug/ml after 48 hrs by MTT assay. The settings on record: PC-3, 48 h. Format: functional.
For data set [30], the system named is PC-3. Put plainly: Antiproliferative activity against human PC3 cells assessed as inhibition of cell growth at 1.7 ug/ml after 24 hrs by trypan blue dye exclusion assay. The settings on record: PC-3, 24 h, read-out: GI. Format: functional.
The test system of data set [31] is PC-3. The data set is described as follows: Decrease in cyclin B1 mRNA expression in human PC3 cells after 24 hrs by RT-PCR analysis. Format: functional.
Data set [32] is described as follows: Cytotoxicity against human RWPE1 cells assessed as inhibition of cell viability at 2.5 ug/ml after 48 hrs by MTT assay. Format: cell-based. The following applies: rwpe-1, 48 h.
Data set [33] has as its system PC-3. The data set is described as follows: Increase in p21 protein expression in human PC3 cells at 5 ug/ml after 24 to 48 hrs by flow cytometry. It is filed as functional, cell-based.

With `C[C@@H]1C[C@H]2[C@@H]3CCC4=CC(=O)C=C[C@]4(C)[C@@]3(F)[C@@H](O)C[C@]2(C)[C@@]1(O)C(=O)CO`, the outcome in the data set on Thymocyte was Active.
Regarding `CC(=O)O[C@H]1C(=O)[C@@]2(C)[C@H]([C@H](OC(=O)c3ccccc3)[C@]3(O)C[C@H](OC(=O)[C@H](O)[C@@H](NC(=O)c4ccccc4)c4ccccc4)C(C)=C1C3(C)C)[C@]1(OC(C)=O)CO[C@@H]1C[C@@H]2O` [PACLITAXEL], the Activity is 5.8% in the data set on PC-3 [1]; 79.2% with PC-3 [2]; 25% in the data set on PC-3 [3]; 15% in the data set with PC-3 [6]; 0.6% in the data set on PC-3 [7]; 62% in the data set with PC-3 [8]. Further, the Activity in the data set with PC-3 [10] was found to be 39%; in the data set with PC-3 [11] it was 18.4%; in the data set on PC-3 [12], 21.1%; in the data set on PC-3 [13], 13%; in the data set with PC-3 [16], 18.1%; with PC-3 [18], 1.9%. Also, in the data set on PC-3 [20], the Activity is given as 14.7%. Moreover, the IC50 in the data set with PC-3 [4] was found to be 2.9 µg/mL (≈ 3.4 µM); in the data set with LNCaP, 1.7 µg/mL (≈ 1.99 µM); in data set [14], 0.7 µg/mL (≈ 0.82 µM). The “inhibition (INH)” value turned out to be 48% in the data set on PC-3 [5] and 44% in the data set on PC-3 [19]. The outcome in the data set with PC-3 [9], in the data set with PC-3 [15] and in the data set with PC-3 [17] was Active.
As for `O=C1C2=C(C(=O)c3ccccc31)[C@H]1Oc3ccccc3[C@H]1CO2` [PTEROCARPANQUINONE], the results for the inhibition of growth at 5 µg/mL in the data set with PC-3 [21], with PC-3 [22] and in the data set on PC-3 [26] were 93%, 88% and 78%, respectively. In addition, the Activity came out at 22.5% in the data set with PC-3 [1]; 43.4% in the data set on PC-3 [2]; 51.8% with PC-3 [3]; 34.1% with PC-3 [6]; 0.6% in the data set with PC-3 [7]; 35% with PC-3 [8]. The Activity was 17.8% in the data set with PC-3 [11]; 7.7% with PC-3 [12]; 13.2% with PC-3 [13]; 48.3% in the data set with PC-3 [16]; 1.6% in the data set on PC-3 [18]; “Non-toxic” in [32]. Further, in the data set with PC-3 [20], the Activity was determined as 5.7%. Further, the inhibition entry with PC-3 [4] is “Dose-dependent effect”. Besides, the IC50 in the data set on PC-3 [4] was 1.7 µg/mL (≈ 5.59 µM); with LNCaP it was 1.1 µg/mL (≈ 3.61 µM); in data set [14], 1.3 µg/mL (≈ 4.27 µM). Also, the inhibition of growth at 1.7 µg/mL with PC-3 [23] was 68%; in the data set on PC-3 [24] it was 60%; in the data set with PC-3 [30], 60%. Besides, the “inhibition (INH)” value in the data set with PC-3 [25] was 27%; in the data set on PC-3 [5] it was 59%; with PC-3 [28] it was 60%; in [14] (human, rwpe-1, 48 h) it was “Dose-dependent effect”; with PC-3 [31], 58%; in the data set with PC-3 [19], 43%. Further, in the data set with PC-3 [27], the inhibition at 1 µg/mL worked out at 12.8%. For the same compound, the outcome in the data set with PC-3 [15], in the data set on PC-3 [17] and in the data set with PC-3 [33] was Active. For the same compound, the inhibition at 10 µg/mL in the data set on PC-3 [29] was determined as 92.7%.
